US6444644B1, “Anticoagulant peptide fragments derived from apolipoprotein B-100” (University College London, priority 1996, dated 2002)
No end group written: not given here.

Experiments:
Format in all cases: biochemical
[1] = target: T1, thromboplastin (Homo sapiens, UniProt P13726); assay: Inhibition of thromboplastin in the presence of plasma
T1 construct: purchased Gamidor Ltd. (Oxfordshire, U.K.)
Experimental: […] The samples were then assayed by addition of 100 μl of […] CaCl2 solution and measurement on the coagulometer. The percentage inhibition in each case calculated against a similarly treated sample, containing thromboplastin only.

[2] = target: T1, thromboplastin; assay: Effect of KRAD-14 concentration on thromboplastin inhibition (one-stage prothrombin time assay)
Experimental: The synthetic KRAD-14 peptide was reconstituted in distilled water at 1 mM. Aliquots of recombinant thromboplastin were incubated, at 37° C. with a KRAD-14 at concentration range 10-5000 nM (final concentration) for 1 min prior to assaying using the one-stage prothrombin time assay. In addition, samples of thromboplastin (10 U/ml) were incubated with synthetic KRAD-14 at concentrations ranging from 1-100 μM (final concentration) prior to assaying using the one-stage prothrombin time assay.
Aliquots of recombinant thromboplastin were incubated, at 37° C. with a KRAD-14 at concentration range 10-5000 nM (final concentration) for 1 min prior to assaying using the one-stage prothrombin time assay. The percentage inhibition was calculated as 100×([…])/Initial activity. The experiment was performed in triplicate.
Samples of thromboplastin (10 U/ml) were incubated with synthetic KRAD-14 concentration ranging 1-100 μM (final concentration) prior to assaying using the one-stage prothrombin time assay. The percentage inhibition was calculated as 100×([…])/Initial activity. The experiment was performed in triplicate.
Aliquots (1 ml) of recombinant thromboplastin (100 nM) were incubated at 37° C. with a KRAD-14 peptide at concentration range 50 (♦), 100 (▾), 200 (▪), 300 (⋄) and 500 nM (□) (final concentration). 100 μl of the each sample was removed immediately and assayed for thromboplastin activity, by means of the one-stage prothrombin time assay. The rest of the samples were incubated at 37° C. and further 100 μl samples were removed at intervals up to 40 min and measured. The percentage inhibition was calculated as 100×(Initial activity-Residual activity)/Initial activity. The data were obtained from 3 separate experiments.

[3] = target: T2, thromboplastin, reconstituted in phosphatidylcholine (Homo sapiens, UniProt P13726); assay: Inhibition of delipidated thromboplastin reconstituted in phosphatidylcholine; conditions: 500 nM sample, 37° C., 30 min
T2 construct: purchased Gamidor Ltd. (Oxfordshire, U.K.)
T2 sequence (P13726 33-295): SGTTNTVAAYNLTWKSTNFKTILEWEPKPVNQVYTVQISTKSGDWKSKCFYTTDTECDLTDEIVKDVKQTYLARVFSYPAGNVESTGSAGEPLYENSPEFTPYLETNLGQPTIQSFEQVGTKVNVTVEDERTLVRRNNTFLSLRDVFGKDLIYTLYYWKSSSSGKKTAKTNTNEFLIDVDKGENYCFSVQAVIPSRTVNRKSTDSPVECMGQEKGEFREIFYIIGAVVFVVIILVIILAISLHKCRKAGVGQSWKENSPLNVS
Experimental: In other experiments, recombinant thromboplastin (1 mg/ml) was delipidated with chloroform/methanol as described previously, to remove phosphatidylserine and other lipids and reconstituted with phosphatidylcholine (1 mg/ml) to differentiate between the effects of the prepared samples on the protein moiety of thromboplastin and any effects on the thromboplastin-associated phosphatidylserine. […] The percentage inhibition was calculated against the control sample.
Recombinant thromboplastin was delipidated to remove phosphatidylserine and other lipids and reconstituted at 1 mg/ml with phosphatidylcholine (1 mg/ml). […] The % Inhibition was calculated against the control. The data were obtained from 3 separate experiments.

[4] = target: thrombin (Homo sapiens, UniProt P00734); assay: Influence on thrombin activity (amidolytic and clotting); conditions: 500 nM peptide, thrombin 100 nM
Experimental: Samples (1 ml) of either KRAD-14 peptide (500 nM) or each of the control peptides (500 nM) were incubated with thrombin (100 nM) at 37° C. and the thrombin activity measured at the beginning and at intervals up to 60 min as follows. The enzymatic activity of thrombin was measured by the addition of 100 μl aliquots to 0.45 ml of thrombin substrate (N-benzoyl-phe-val-arg-p-nitroanilide) (0.26 mM) which was then incubated at 37° C. for exactly 10 min, before the addition of 0.45 ml of 20% (w/v) acetic acid. The absorption was measured at 405 nm against a thrombin (100 nM) control assayed similarly. The procoagulant activity of thrombin was measured by the addition of 100 μl of the sample to control plasma (100 μl) and 25 mM CaCl2 solution and measuring the clotting time. A thrombin 100 nM) control was included in the assay against which comparisons were made.

[5] = target: factor Xa (Homo sapiens, UniProt P00742); assay: Influence on factor Xa activity (amidolytic and clotting in factor Xa-deficient plasma)
Chain of factor Xa (P00742 235-488 limits assumed): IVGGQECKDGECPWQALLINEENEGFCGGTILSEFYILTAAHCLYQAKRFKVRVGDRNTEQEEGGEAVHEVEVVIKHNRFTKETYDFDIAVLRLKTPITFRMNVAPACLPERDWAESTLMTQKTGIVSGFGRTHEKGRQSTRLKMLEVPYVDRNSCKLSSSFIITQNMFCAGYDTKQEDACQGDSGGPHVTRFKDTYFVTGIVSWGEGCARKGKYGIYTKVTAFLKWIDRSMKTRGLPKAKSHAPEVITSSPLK
Chain of factor Xa (P00742 41-179 limits assumed): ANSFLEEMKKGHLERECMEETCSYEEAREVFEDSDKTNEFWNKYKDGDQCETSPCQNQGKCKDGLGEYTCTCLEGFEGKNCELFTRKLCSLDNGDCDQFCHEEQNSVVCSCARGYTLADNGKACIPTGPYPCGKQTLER
Experimental: Samples (1 ml) of either KRAD-14 peptide (500 nM) or the control peptide 500 nM) were incubated with pre-activated factor Xa (100 nM) at 37° C. and the factor Xa activity measured at the beginning and at intervals up to 60 min as follows. The enzymatic activity of factor Xa was measured by the addition of 100 μl aliquots to 0.45 ml of thrombin substrate (N-benzoyl-ile-glu-gly-arg-p-nitroanilide) (0.26 mM) which was then incubated at 37° C. for exactly 10 min, before the addition of 0.45 ml of 20% (w/v) acetic acid. The absorption was measured at 405 nm against a factor Xa (100 nM) control assayed similarly. The procoagulant activity of factor Xa was measured by the addition of 100 μl of the sample to factor Xa-deficient plasma (100 μl) and […] CACl2 solution and measuring the clotting time. A factor Xa (100 nM) control was included in the assay against which comparisons were made.
Three 1 ml samples containing recombinant KRAD-14 peptide (20 (♦), 40 (▾) and 80 (▪) nM) were mixed with factor Xa (100 nM). […] The rest of the samples were incubated at 37° C. and further 100 μl samples were removed at intervals up to 40 min and measured as before. The activity was measured against a standard curve and the percentage inhibition calculated against the initial factor Xa activity. […]

T1 sequence (P13726 33-295): as the sequence (P13726 33-295) above

KAQSKKNKHRHSTT [KRAD-14] was tested, and the “influence of plasma on the ability to inhibit thromboplastin activity (in words)” value ([1]; plasma included during the incubation prior to assaying, peptide 500 nM) was “did not significantly affect”, the “inhibition of thromboplastin activity in the presence of plasma” value ([1]; plasma present, 37° C., 2 min incubation) was 74% and the “lowest concentration effective in inhibiting thromboplastin” value ([2]; 1 min preincubation at 37° C.) was 50 nM. For the same sequence, the “inhibition of thromboplastin compared with the recombinant peptide (in words)” value ([2]; synthetic peptide) was “inhibitory towards thromboplastin with similar effectiveness as the recombinant peptide”, the Kd ([2]; thromboplastin 100 nM, KRAD-14 peptide 1-5000 nM, 1 min at 37° C., read-out: Kdapp, inhibition of thromboplastin) was 37 nM and the inhibition at 0.5 µM ([3]; against distilled water control) was greater than 99%. The “% Inhibition” value ([3]; against distilled water control, listed as Recombinant KRAD-14 peptide) was 99%, the “Procoagulant Activity” value ([3]; distilled water control 4.70 U/ml) was “(0.05 U/ml)” and the “effect on the amidolytic proteolytic activity of thrombin” value [4] was “did not affect”. The “effect on the clotting ability of thrombin” value [4] was “did not affect”, the “effect on the amidolytic activity of factor Xa” value ([5]; 500 nM peptide) was “did not affect” and the Kd ([5]; factor Xa 100 nM, 37° C., factor Xa deficient plasma, read-out: Kdapp, inhibition of coagulation upon pre-incubation with factor Xa) was 275 nM.
